Data reported in PubChem BioAssay (NCI).
Where “and” joins values, the source holds several entries; their conditions need not be identical. Identical values can stand only once.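 Each compound was tested at five concentrations against cells in 96-well plates for 48 hours. At the GI50, growth is halved. The concentration for full growth arrest is given as TGI.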

Legend:
Experiment in all cases: DTP human tumour cell line panel, 48 h
SK-OV-3 ovarian = system: SK-OV-3 ovarian
CAKI-1 renal = system: CAKI-1 renal
MDA-MB-435 = system: MDA-MB-435
U251 CNS = system: U251 CNS
IGROV1 ovarian = system: IGROV1 ovarian
COLO 205 colon = system: COLO 205 colon
MCF7 breast = system: MCF7 breast
T-47D breast = system: T-47D breast
OVCAR-8 ovarian = system: OVCAR-8 ovarian
SW-620 colon = system: SW-620 colon

CC(=O)N=C1N(/C=C2\C(=O)Oc3ccccc3C2=O)C(=O)/C(=C/c2ccc(Cl)cc2Cl)N1C
TGI (SK-OV-3 ovarian): > 100 µM | TGI (CAKI-1 renal): > 100 µM | TGI (MDA-MB-435): > 100 µM | TGI (U251 CNS): > 100 µM | TGI (IGROV1 ovarian): > 100 µM | TGI (COLO 205 colon): > 100 µM | TGI (MCF7 breast): > 100 µM | TGI (T-47D breast): > 100 µM | TGI (OVCAR-8 ovarian): > 100 µM | TGI (SW-620 colon): > 100 µM

CN(C)CCCn1nc(N)c2nc3cc(Cl)ccc3nc21
TGI (SK-OV-3 ovarian): > 100 µM | TGI (CAKI-1 renal): > 100 µM | TGI (MDA-MB-435): > 100 µM | TGI (U251 CNS): > 100 µM | TGI (IGROV1 ovarian): 94.8 µM | TGI (COLO 205 colon): > 100 µM | TGI (MCF7 breast): > 100 µM | TGI (T-47D breast): > 100 µM | TGI (OVCAR-8 ovarian): > 100 µM | TGI (SW-620 colon): > 100 µM

CCCCCCCCCCCCCCCCOC[C@@H](COC(c1ccccc1)(c1ccccc1)c1ccccc1)O[P+](=S)OC (stereo partly drawn)
TGI (SK-OV-3 ovarian): 19.8 µM | TGI (CAKI-1 renal): 23.8 µM | TGI (MDA-MB-435): 5.5 µM | TGI (U251 CNS): 17.6 µM | TGI (IGROV1 ovarian): 36 µM | TGI (COLO 205 colon): 38.6 µM | TGI (MCF7 breast): 31 µM | TGI (T-47D breast): 45 µM | TGI (OVCAR-8 ovarian): 48.9 µM | TGI (SW-620 colon): 37 µM

Cc1ccc(/C(O)=C/c2nc3ccccc3s/c2=N/CS(=O)(=O)c2ccc(C)cc2)cc1
TGI (SK-OV-3 ovarian): > 10 µM | TGI (CAKI-1 renal): > 10 µM | TGI (MDA-MB-435): > 10 µM | TGI (U251 CNS): > 10 µM | TGI (IGROV1 ovarian): > 10 µM | TGI (COLO 205 colon): > 10 µM | TGI (MCF7 breast): > 10 µM | TGI (T-47D breast): > 10 µM | TGI (OVCAR-8 ovarian): > 10 µM | TGI (SW-620 colon): > 10 µM

Oc1ccc(Cl)cc1CN1CCN(Cc2cc(Cl)ccc2O)C1
TGI (SK-OV-3 ovarian): 13.3 µM | TGI (CAKI-1 renal): 6.48 µM | TGI (MDA-MB-435): 7.92 µM | TGI (U251 CNS): 15 µM | TGI (IGROV1 ovarian): 6.47 µM | TGI (COLO 205 colon): 5.15 µM | TGI (MCF7 breast): 24.1 µM | TGI (T-47D breast): 10.9 µM | TGI (OVCAR-8 ovarian): 2.21 µM | TGI (SW-620 colon): 10.5 µM

CN(c1ccccc1Cl)S(=O)(=O)c1ccc([N+](=O)[O-])cc1
TGI (SK-OV-3 ovarian): > 100 µM | TGI (CAKI-1 renal): > 100 µM | TGI (MDA-MB-435): > 100 µM | TGI (U251 CNS): > 100 µM | TGI (IGROV1 ovarian): > 100 µM | TGI (COLO 205 colon): > 100 µM | TGI (MCF7 breast): > 100 µM | TGI (T-47D breast): > 100 µM | TGI (OVCAR-8 ovarian): > 100 µM | TGI (SW-620 colon): > 100 µM

N#Cc1c(-c2ccccc2)[nH]c(=O)n(C2OC(CO)C(O)C(O)C2O)c1=O (stereo not drawn)
TGI (SK-OV-3 ovarian): > 100 µM | TGI (CAKI-1 renal): > 100 µM | TGI (MDA-MB-435): > 100 µM | TGI (U251 CNS): > 100 µM | GI50 (IGROV1 ovarian): > 100 µM and 21.3 µM | TGI (IGROV1 ovarian): > 100 µM | TGI (COLO 205 colon): > 100 µM | TGI (MCF7 breast): > 100 µM | TGI (T-47D breast): > 100 µM | TGI (OVCAR-8 ovarian): > 100 µM | TGI (SW-620 colon): > 100 µM

O=C(N/N=C1/C(=O)c2c3ccccc3cc3cccc1c23)c1ccccc1
TGI (SK-OV-3 ovarian): 75 µM | TGI (CAKI-1 renal): 70.1 µM | TGI (MDA-MB-435): > 86.7 µM | TGI (U251 CNS): 98.3 µM | TGI (IGROV1 ovarian): 85.5 µM | TGI (COLO 205 colon): > 100 µM | TGI (MCF7 breast): > 77.1 µM | TGI (T-47D breast): 42 µM | TGI (OVCAR-8 ovarian): > 92.3 µM | TGI (SW-620 colon): > 100 µM

CCN(CC)CCNC(=O)c1cn2c(ccc3sc4ccccc4c(=O)c32)n1
TGI (SK-OV-3 ovarian): 25.5 µM | TGI (CAKI-1 renal): 24.2 µM | TGI (MDA-MB-435): 54 µM | TGI (U251 CNS): > 51.6 µM | TGI (IGROV1 ovarian): 21.3 µM | TGI (COLO 205 colon): 21.1 µM | TGI (MCF7 breast): 38.2 µM | TGI (T-47D breast): 30 µM | TGI (OVCAR-8 ovarian): 31.8 µM | TGI (SW-620 colon): 20.3 µM

O=C(N/N=C(/COc1ccc([N+](=O)[O-])cc1)N=Cc1ccncc1)c1ccncc1
TGI (SK-OV-3 ovarian): > 100 µM | TGI (CAKI-1 renal): > 100 µM | TGI (MDA-MB-435): > 100 µM | TGI (U251 CNS): > 100 µM | TGI (IGROV1 ovarian): > 100 µM | TGI (COLO 205 colon): > 100 µM | TGI (MCF7 breast): > 100 µM | TGI (T-47D breast): > 100 µM | TGI (OVCAR-8 ovarian): > 100 µM | TGI (SW-620 colon): > 100 µM

CCCCCCCCCCC1OC([C@@H](O)CC[C@H](O)C2CC[C@@H](CCCCCCCC(O)CC3=CC(C)OC3=O)O2)CCC1O (stereo partly drawn)
TGI (SK-OV-3 ovarian): > 25 µM | TGI (CAKI-1 renal): > 25 µM | GI50 (MDA-MB-435): 1.59 µM | TGI (MDA-MB-435): 5.58 µM and > 20.2 µM | GI50 (U251 CNS): 4 µM | TGI (U251 CNS): > 25 µM | GI50 (IGROV1 ovarian): 10.6 µM | TGI (IGROV1 ovarian): > 25 µM | GI50 (COLO 205 colon): 5.47 µM | TGI (COLO 205 colon): > 19.8 µM | GI50 (MCF7 breast): 1.34 µM | TGI (MCF7 breast): > 25 µM | TGI (T-47D breast): > 25 µM | GI50 (OVCAR-8 ovarian): 9.96 µM | TGI (OVCAR-8 ovarian): > 25 µM | GI50 (SW-620 colon): 4.37 µM | TGI (SW-620 colon): > 25 µM

COc1ccc(OC)c(NS(=O)(=O)c2ccc3nc(C)n(NS(=O)(=O)c4cc(OC)ccc4OC)c(=O)c3c2)c1
TGI (SK-OV-3 ovarian): > 100 µM | TGI (CAKI-1 renal): > 100 µM | TGI (MDA-MB-435): > 100 µM | TGI (U251 CNS): > 100 µM | TGI (IGROV1 ovarian): > 100 µM | TGI (COLO 205 colon): > 100 µM | TGI (MCF7 breast): > 100 µM | TGI (T-47D breast): > 100 µM | TGI (OVCAR-8 ovarian): > 100 µM | TGI (SW-620 colon): > 100 µM

O=c1[nH]nc(Cc2ccccc2)n1CCO
TGI (SK-OV-3 ovarian): > 100 µM | TGI (CAKI-1 renal): > 100 µM | TGI (MDA-MB-435): > 100 µM | TGI (U251 CNS): > 100 µM | TGI (IGROV1 ovarian): > 100 µM | TGI (COLO 205 colon): > 100 µM | TGI (MCF7 breast): > 100 µM | TGI (T-47D breast): > 100 µM | TGI (OVCAR-8 ovarian): > 100 µM | TGI (SW-620 colon): > 100 µM

CCCCCCCCCCCCOCCCOP(=O)([O-])OCC[N+](C)(C)C
TGI (SK-OV-3 ovarian): > 100 µM | TGI (CAKI-1 renal): 47.5 µM | TGI (MDA-MB-435): > 70 µM | TGI (U251 CNS): 47.7 µM | TGI (IGROV1 ovarian): 25.6 µM | TGI (COLO 205 colon): 31.7 µM | TGI (MCF7 breast): > 100 µM | TGI (T-47D breast): 38 µM | TGI (OVCAR-8 ovarian): > 80.3 µM | TGI (SW-620 colon): > 100 µM

Cc1c2c(OCCN3CCCCC3)nn(C)c(=O)c2c(C)n1-c1ccccc1
TGI (SK-OV-3 ovarian): > 100 µM | TGI (CAKI-1 renal): > 100 µM | TGI (MDA-MB-435): > 100 µM | TGI (U251 CNS): > 100 µM | TGI (IGROV1 ovarian): > 100 µM | TGI (COLO 205 colon): 35.5 µM | TGI (MCF7 breast): > 100 µM | TGI (T-47D breast): > 100 µM | TGI (OVCAR-8 ovarian): > 100 µM | TGI (SW-620 colon): > 100 µM
